Reference: patent US20050197350A1, “Novel quinoline, tetrahydroquinazoline, and pyrimidine derivatives and methods of treatment related to the use thereof” (TAISHO PHARMACEUTICAL CO., LTD., priority 2003, published 2005)

These compounds were tested on MCH receptors (assay: MCH receptor activity class (method not given)). Settings: activity class per percent of control at 10^-7 M or IC50.

Row | Compound | class
1 | CN(C)c1nc(N[C@H]2CC[C@@H](NC(=O)Cc3sc(-c4ccccc4)nc3-c3ccc(Cl)cc3)CC2)nc2c1CCCC2 [compound 1037] | 3 (Class 3 The value of percent of control at 10^−7 M was more than 60% or the value of IC50 was more than 200 nM.)
2 | Cc1ccc(S(=O)(=O)n2ccc(C(=O)N[C@H]3CC[C@@H](Nc4nc5c(c(N(C)C)n4)CCCC5)CC3)c2)cc1 [compound 1038] | 3 (Class 3 The value of percent of control at 10^−7 M was more than 60% or the value of IC50 was more than 200 nM.)
3 | CN(C)c1nc(N[C@H]2CC[C@@H](NC(=O)c3ccc(-c4cccc([N+](=O)[O-])c4)o3)CC2)nc2c1CCCC2 [compound 1039] | 2 (Class 2: The value of percent of control at 10^−7 M was from 40% to 60% or the value of IC′50 was from 50 nM to 200 nM.)
4 | CN(C)c1nc(N[C@H]2CC[C@@H](NC(=O)c3scc(S(C)(=O)=O)c3Cl)CC2)nc2c1CCCC2 [compound 1040] | 3 (Class 3 The value of percent of control at 10^−7 M was more than 60% or the value of IC50 was more than 200 nM.)
5 | CSc1sc(C(=O)N[C@H]2CC[C@@H](Nc3nc4c(c(N(C)C)n3)CCCC4)CC2)c(Cl)c1S(=O)(=O)C(C)C [compound 1041] | 3 (Class 3 The value of percent of control at 10^−7 M was more than 60% or the value of IC50 was more than 200 nM.)
6 | CSc1sc(C(=O)N[C@H]2CC[C@@H](Nc3nc4c(c(N(C)C)n3)CCCC4)CC2)c(I)c1S(=O)(=O)C(C)C [compound 1042] | 3 (Class 3 The value of percent of control at 10^−7 M was more than 60% or the value of IC50 was more than 200 nM.)
7 | CN(C)c1nc(N[C@H]2CC[C@@H](NC(=O)c3csc([N+](=O)[O-])c3)CC2)nc2c1CCCC2 [compound 1043] | 1 (Class 1: The value of percent of control at 10^−7 M was less than 40% or the value of IC50 was less than 50 nM.)
8 | CN(C)c1nc(N[C@H]2CC[C@@H](NC(=O)c3cc([N+](=O)[O-])cn3C)CC2)nc2c1CCCC2 [compound 1044] | 1 (Class 1: The value of percent of control at 10^−7 M was less than 40% or the value of IC50 was less than 50 nM.)
9 | CN(C)c1nc(N[C@H]2CC[C@@H](NC(=O)c3cn(S(=O)(=O)c4ccccc4)c4ccccc34)CC2)nc2c1CCCC2 [compound 1045] | 3 (Class 3 The value of percent of control at 10^−7 M was more than 60% or the value of IC50 was more than 200 nM.)
10 | CN(C)c1nc(N[C@H]2CC[C@@H](NC(=O)c3ccc([N+](=O)[O-])cc3)CC2)nc2c1CCCC2 [compound 1046] | 3 (Class 3 The value of percent of control at 10^−7 M was more than 60% or the value of IC50 was more than 200 nM.)
11 | COc1cc([N+](=O)[O-])ccc1C(=O)N[C@H]1CC[C@@H](Nc2nc3c(c(N(C)C)n2)CCCC3)CC1 [compound 1047] | 2 (Class 2: The value of percent of control at 10^−7 M was from 40% to 60% or the value of IC′50 was from 50 nM to 200 nM.)
12 | CN(C)c1nc(N[C@H]2CC[C@@H](NC(=O)c3ccc(C(F)(F)F)c(F)c3)CC2)nc2c1CCCC2 [compound 1048] | 3 (Class 3 The value of percent of control at 10^−7 M was more than 60% or the value of IC50 was more than 200 nM.)
13 | CN(C)c1nc(N[C@H]2CC[C@@H](NC(=O)c3ccc([N+](=O)[O-])cc3F)CC2)nc2c1CCCC2 [compound 1049] | 3 (Class 3 The value of percent of control at 10^−7 M was more than 60% or the value of IC50 was more than 200 nM.)
14 | Cc1cc(C(=O)N[C@H]2CC[C@@H](Nc3nc4c(c(N(C)C)n3)CCCC4)CC2)cc(C)c1[N+](=O)[O-] [compound 1050] | 3 (Class 3 The value of percent of control at 10^−7 M was more than 60% or the value of IC50 was more than 200 nM.)
15 | Cc1cc(C)c(C(=O)C(=O)N[C@H]2CC[C@@H](Nc3nc4c(c(N(C)C)n3)CCCC4)CC2)c(C)c1 [compound 1051] | 3 (Class 3 The value of percent of control at 10^−7 M was more than 60% or the value of IC50 was more than 200 nM.)
16 | CN(C)c1nc(N[C@H]2CC[C@@H](NC(=O)c3ccc4ncsc4c3)CC2)nc2c1CCCC2 [compound 1054] | 3 (Class 3 The value of percent of control at 10^−7 M was more than 60% or the value of IC50 was more than 200 nM.)
17 | CN(C)c1nc(N[C@H]2CC[C@@H](NC(=O)c3cc(Cl)ccc3O)CC2)nc2c1CCCC2 [compound 1055] | 1 (Class 1: The value of percent of control at 10^−7 M was less than 40% or the value of IC50 was less than 50 nM.)
18 | CSc1ccc(Cl)c(C(=O)N[C@H]2CC[C@@H](Nc3nc4c(c(N(C)C)n3)CCCC4)CC2)c1 [compound 1056] | 3 (Class 3 The value of percent of control at 10^−7 M was more than 60% or the value of IC50 was more than 200 nM.)
19 | COc1cccc2cc(C(=O)N[C@H]3CC[C@@H](Nc4nc5c(c(N(C)C)n4)CCCC5)CC3)oc12 [compound 1057] | 3 (Class 3 The value of percent of control at 10^−7 M was more than 60% or the value of IC50 was more than 200 nM.)
20 | Cc1cccc(C(=O)N[C@H]2CC[C@@H](Nc3nc4c(c(N(C)C)n3)CCCC4)CC2)c1N [compound 1058] | 3 (Class 3 The value of percent of control at 10^−7 M was more than 60% or the value of IC50 was more than 200 nM.)
21 | C=CCSc1ncccc1C(=O)N[C@H]1CC[C@@H](Nc2nc3c(c(N(C)C)n2)CCCC3)CC1 [compound 1059] | 3 (Class 3 The value of percent of control at 10^−7 M was more than 60% or the value of IC50 was more than 200 nM.)

Row | Compound | class
22 | CN(C)c1nc(N[C@H]2CC[C@@H](NC(=O)c3cc(C(C)(C)C)c(O)c(C(C)(C)C)c3)CC2)nc2c1CCCC2 [compound 1060] | 3 (Class 3 The value of percent of control at 10^−7 M was more than 60% or the value of IC50 was more than 200 nM.)
23 | CN(C)c1nc(N[C@H]2CC[C@@H](CNC(=O)c3ccc(Br)s3)CC2)nc2c1CCCC2 [compound 1061] | 3 (Class 3 The value of percent of control at 10^−7 M was more than 60% or the value of IC50 was more than 200 nM.)
24 | CN(C)c1nc(N[C@H]2CC[C@@H](CNC(=O)Cc3c(Cl)ccc(Cl)c3Cl)CC2)nc2c1CCCC2 [compound 1062] | 2 (Class 2: The value of percent of control at 10^−7 M was from 40% to 60% or the value of IC′50 was from 50 nM to 200 nM.)
25 | CN(C)c1nc(N[C@H]2CC[C@@H](CNC(=O)Cc3ccc(F)cc3Cl)CC2)nc2c1CCCC2 [compound 1063] | 3 (Class 3 The value of percent of control at 10^−7 M was more than 60% or the value of IC50 was more than 200 nM.)
26 | CN(C)c1nc(N[C@H]2CC[C@@H](CNC(=O)c3ccc(-c4ccc(Cl)cc4[N+](=O)[O-])o3)CC2)nc2c1CCCC2 [compound 1064] | 3 (Class 3 The value of percent of control at 10^−7 M was more than 60% or the value of IC50 was more than 200 nM.)
27 | CN(C)c1nc(N[C@H]2CC[C@@H](CNC(=O)c3ccc(Cl)s3)CC2)nc2c1CCCC2 [compound 1065] | 3 (Class 3 The value of percent of control at 10^−7 M was more than 60% or the value of IC50 was more than 200 nM.)
28 | CN(C)c1nc(N[C@H]2CC[C@@H](CNC(=O)CCc3ccccc3O)CC2)nc2c1CCCC2 [compound 1067] | 3 (Class 3 The value of percent of control at 10^−7 M was more than 60% or the value of IC50 was more than 200 nM.)
29 | CN(C)c1nc(N[C@H]2CC[C@@H](CNC(=O)c3ccc(I)o3)CC2)nc2c1CCCC2 [compound 1068] | 3 (Class 3 The value of percent of control at 10^−7 M was more than 60% or the value of IC50 was more than 200 nM.)
30 | CN(C)c1nc(N[C@H]2CC[C@@H](CNC(=O)Cc3ccccc3I)CC2)nc2c1CCCC2 [compound 1069] | 3 (Class 3 The value of percent of control at 10^−7 M was more than 60% or the value of IC50 was more than 200 nM.)
31 | CN(C)c1nc(N[C@H]2CC[C@@H](CNC(=O)/C=C/c3cccc([N+](=O)[O-])c3)CC2)nc2c1CCCC2 [compound 1070] | 2 (Class 2: The value of percent of control at 10^−7 M was from 40% to 60% or the value of IC′50 was from 50 nM to 200 nM.)
32 | CN(C)c1nc(N[C@H]2CC[C@@H](CNC(=O)c3ccccc3Cc3ccccc3)CC2)nc2c1CCCC2 [compound 1072] | 3 (Class 3 The value of percent of control at 10^−7 M was more than 60% or the value of IC50 was more than 200 nM.)
33 | CN(C)c1nc(N[C@H]2CC[C@@H](CNC(=O)C(c3ccc(Cl)cc3)c3ccc(Cl)cc3)CC2)nc2c1CCCC2 [compound 1073] | 3 (Class 3 The value of percent of control at 10^−7 M was more than 60% or the value of IC50 was more than 200 nM.)
34 | Cc1ccc(-c2ccc(C(=O)NC[C@H]3CC[C@@H](Nc4nc5c(c(N(C)C)n4)CCCC5)CC3)o2)c([N+](=O)[O-])c1 [compound 1074] | 3 (Class 3 The value of percent of control at 10^−7 M was more than 60% or the value of IC50 was more than 200 nM.)
35 | CN(C)c1nc(N[C@H]2CC[C@@H](CNC(=O)c3ccc([N+](=O)[O-])s3)CC2)nc2c1CCCC2 [compound 1075] | 3 (Class 3 The value of percent of control at 10^−7 M was more than 60% or the value of IC50 was more than 200 nM.)
36 | Cc1cc(C(=O)NC[C@H]2CC[C@@H](Nc3nc4c(c(N(C)C)n3)CCCC4)CC2)ccc1[N+](=O)[O-] [compound 1076] | 3 (Class 3 The value of percent of control at 10^−7 M was more than 60% or the value of IC50 was more than 200 nM.)
37 | COc1cc(C(=O)NC[C@H]2CC[C@@H](Nc3nc4c(c(N(C)C)n3)CCCC4)CC2)ccc1[N+](=O)[O-] [compound 1077] | 3 (Class 3 The value of percent of control at 10^−7 M was more than 60% or the value of IC50 was more than 200 nM.)
38 | CN(C)c1nc(N[C@H]2CC[C@@H](CNC(=O)c3cn(Cc4ccccc4)c4ccccc34)CC2)nc2c1CCCC2 [compound 1078] | 3 (Class 3 The value of percent of control at 10^−7 M was more than 60% or the value of IC50 was more than 200 nM.)
39 | CN(C)c1nc(N[C@H]2CC[C@@H](CNC(=O)CC3=CCCCC3)CC2)nc2c1CCCC2 [compound 1079] | 3 (Class 3 The value of percent of control at 10^−7 M was more than 60% or the value of IC50 was more than 200 nM.)
40 | CN(C)c1nc(N[C@H]2CC[C@@H](CNC(=O)Cc3ccccc3OC(F)(F)F)CC2)nc2c1CCCC2 [compound 1081] | 3 (Class 3 The value of percent of control at 10^−7 M was more than 60% or the value of IC50 was more than 200 nM.)
41 | Cc1cc(C(=O)NC[C@H]2CC[C@@H](Nc3nc4c(c(N(C)C)n3)CCCC4)CC2)cc(C)c1OCc1ccccc1 [compound 1082] | 3 (Class 3 The value of percent of control at 10^−7 M was more than 60% or the value of IC50 was more than 200 nM.)
